# Assays:
# cancer cell lines = details: cited from earlier work
# [1] = tested on: stearoyl-CoA-desaturase (SCD-1); details: role: inhibitor; cited from earlier work
# [2] = tested on: non-cancerous healthy cells; details: in vitro; cited from earlier work
# [3] = tested on: tumor growth of predominant cancer types; details: preclinically in vivo; cited from earlier work
# [4] = at a range of molar ratios; cited from earlier work
# tumor [5] = details: oral, liposomal betulinic acid; cited from earlier work
# [6] = at concentrations effectively limiting cancer growth, up to 500 mg per kg bodyweight; cited from earlier work
# tumor [7] = experiment: Anti-tumor effect in mice after oral liposomal betulinic acid; type: in vivo; details: extrapolated from 150 mg/kg weekly oral dose in mice
SMILES,Activity against cancer types in vitro (cancer cell lines),Effect on SCD-1 activity [1],Cytotoxicity for non-cancerous healthy cells [2],Tumor growth inhibition [3],Miscibility with outer leaflet membrane phospholipids [4],Weekly orally administered dose required for the observed anti-tumor effects in mice (tumor [5]),Signs of toxicity in animal experiments [6],Weekly dose extrapolated to an individual of 80 kg (tumor [7])
"C=C(C)[C@@H]1CC[C@]2(C(=O)O)CC[C@]3(C)[C@H](CC[C@@H]4[C@@]5(C)CC[C@H](O)C(C)(C)[C@@H]5CC[C@]43C)[C@@H]12 [betulinic acid, (3β)-3-Hydroxylup-20 (29)-en-28-oic acid]",broad activity against all prevalent cancer types in vitro,inhibit the activity of stearoyl-CoA-desaturase (SCD-1),absent,inhibits tumor growth of predominant cancer types,miscible,150 mg/kg bodyweight,no signs of toxicity were observed,12 gr
"C=C(C)[C@@H]1CC[C@]2(C)CC[C@]3(C)[C@H](CC[C@@H]4[C@@]5(C)CC[C@H](O)C(C)(C)[C@@H]5CC[C@]43C)[C@@H]12 [lupeol, (3β)-Lup-20 (29)-en-3-ol]",–,–,–,–,miscible,–,–,–

# Source: US20260364013A1, “COMPOSITION AND METHOD OF PREPARATION OF BLOACTIVE TRITERPENOID MILK FAT GLOBULE FORMULATIONS” (EFNATICS B.V., priority 2023, published 2026)
